Data on three molecules can be found in patent US20130065825A1, “Compositions and Methods for Delaying Senescence or Cell Death in Neurons” (NEUROTEZ, INC., priority 2011, published 2013).

The subject of test [1] is Total Sirtuins. Put plainly: SIRT activity assay (Fluor-de-Lys HDAC Fluorimetric Cellular Activity Assay Kit) in lysates of RA-SY5Y cells. The class given is cell-based, human. The note with it: 6 h. On the procedure:
(§1) For neuronal differentiation, 1×10^6 SY5Y or IMR-32 cells were grown in neruonal induction medium (NIM), which is consisted of MEM containing 2% FBS supplemented with 10 μM retinoic acid (RA). Cells were incubated in NIM for 6 days, and switched to serum-free NIM prior to treatment and harvesting on day 7.
(§2) Neuronal cells were treated with Leptin (500 ng/ml) in the presence or absence of nicotinamide (5 mM) or compound C (20 μM) for 6 or 18 h, depending on readout, and then harvested by scraping. Preparation of lysates and immunoblotting were performed as described.
Total Sirtuins activity in cell lysates was determined using the Fluro-de-Lys® HDAC Fluorimetric Cellular Activity Assay Kit (Enzo Life Sciences; Plymouth Meeting, Pa.), according to manufacturer's specified guidelines. “SIRT activity” in this assay is defined as nicotinamide-sensitive deacetylase (class III HDAC) activity in cell lysates. […] Neuronal cell lysates were incubated in the presence or absence of 5 mM nicotinamide, and SIRT activity determined by adding the Flour-de-Lys® Substrate for deacetylation followed by exposure to the Fluor-de-Lys® Developer to generate a fluorescent signal for detection using a fluorimeter (Ex. 350-380 nm; Em. 440-460 nm). Normalized SIRT activity in the lysates was measured in units of fluorescence intensity (Fi) and defined as: […]

Another test concerns phosphorylated tau. Put plainly: Tau phosphorylation in RA-SY5Y cells by immunoblot (pTau181) and ELISA (pTau231, pTau396). The class given is cell-based, human. To be noted: 6 h; for effect of co-treatment on Leptin's reduction of phospho-tau: Leptin 500 ng/mL + nicotinamide 5 mM or compound C 20 μM, phospho-tau returned to control levels; for Tau396 phosphorylation compared to control: nicotinamide 5 mM or compound C 20 μM, independent of Leptin treatment, ELISA. On the procedure:
as §1, §2
(§3) Aβ(1-40) levels in cell culture media were determined using the Human β-Amyloid 1-40 ELISA kit (Invitrogen; Carlsbad, Calif.), and phospho- and total tau levels in cell culture lysates were determined using the Human Tau pSer^396, pThr^231 and Total Tau ELISA kits (Invitrogen) according to manufacturer's specific instructions.
The Invitrogen Human Tau (Total) kit is a solid phase sandwich Enzyme Linked-Immuno-Sorbent Assay (ELISA). Samples, including standards of known human Tau content, control specimens, and unknowns, are pipetted into the wells of microtiter strips, which are coated with a monoclonal antibody specific for human Tau. During the first incubation, the human Tau antigen binds to the immobilized (capture) antibody on one site. After washing, a rabbit polyclonal antibody specific for human Tau is added. During the second incubation, this antibody binds to the immobilized human Tau captured during the first incubation. After removal of excess second antibody, a horseradish peroxidase (HRP)-labeled anti-rabbit antibody is added. This binds to the rabbit polyclonal antibody to complete the four-member sandwich. After a third incubation and washing to remove all the excess anti-rabbit HRP, a substrate solution is added, which is acted upon by the bound enzyme to produce color. The intensity of this colored product is directly proportional to the concentration of human Tau present in the original specimen.
In general terms: A western blot detects proteins with antibodies after separation by electrophoresis.

Another test deals with Aβ(1-40). Put plainly: Aβ(1-40) in culture media of SY5Y-APP751 cells by ELISA. The class given is cell-based, human. To be noted: 18 h; for effect of co-treatment on Leptin's reduction of Aβ(1-40): Leptin 500 ng/mL + nicotinamide 5 mM or compound C 20 μM, Aβ(1-40) returned to vehicle levels. On the procedure: To generate SY5Y stably over-expressing amyloid precursor protein (APP), cells were transfected with a mammalian expression vector encoding the 751 amino acid isoform of human APP (APP751-Accession #NM_201413) (Origene Technologies; Rockville, Md.) using the FuGENE HD transfection reagent, according to manufacturer's specific instructions (Promega; Madison, Wis.). Briefly, cells were transiently transfected with APP751 or vehicle for 48 h and then switched into selection medium containing a concentration range of the antibiotic G418 (100-600 μg/mL) to determine the optimal dose for stable selection. Selection media was changed every 3 days to remove non-viable cells. After 3 weeks, 200 μg/mL G418 yielded distinct colonies while all vehicle-transfected cells were non-viable. Cells were maintained in 10% FBS media containing 200 μg/mL G418 for expansion.
as §2, §3
The Human β-Amyloid 1-40 ELISA kit was used for the quantitative determination of human Aβ40 in samples (e.g., tissue culture medium, tissue homogenate, cerebrospinal fluid (CSF), and the like). The assay recognizes both natural and synthetic forms of human Aβ40. The anti-human Aβ40 antibody is capable of selectively detecting Aβ40 and not Aβ42/Aβ43. The Human β-Amyloid 1-40 ELISA kit is a solid phase sandwich Enzyme Linked-Immuno-Sorbent Assay (ELISA). […] This COOH-terminal sequence is created upon cleavage of the analyzed precursor. Bound rabbit antibody then is detected by the use of a horseradish peroxidase (HRP)-labeled anti-rabbit antibody. […]
For orientation: In an ELISA, binding on a coated surface is turned into a signal by an enzyme label.

The test system of test [2] is Total Sirtuins. The note with it: identified by the manufacturer of the kit; cited from earlier work.
The test system of test [3] is AMP-Activated Protein Kinase (AMPK). Briefly: AMPK activity assay (CycLex AMPK Kinase Assay Kit) in lysates of RA-SY5Y cells. Format: cell-based, human. On the procedure:
as §1, §2
AMP-Activated Protein Kinase (AMPK) activity in cell lysates was determined using the CycLex AMPK Kinase Assay Kit (MBL International; Woburn, Mass.), as described previously. Briefly, the term “relative AMPK activity” or “AMPK activity,” is defined as Compound C-sensitive protein kinase activity in cell lysates. Titration of various Compound C doses identified 10 μM as the dose in which there was no further reduction in kinase activity upon increasing concentration (data not shown). Neuronal cell lysates were incubated in the presence or absence of 10 μM Compound C, and protein kinase activity determined by measuring phosphorylation of the Insulin Receptor Substrate-1 (IRS-1) through immunoassay and conversion of a chromogenic substrate at an absorbance of 450 nm (A450). Normalized AMPK activity in the lysates was defined as: […]

Take `NC(=O)c1cccnc1` [nicotinamide]: the “SIRT activity on co-treatment with Leptin” value in the test with Total Sirtuins [1] (Leptin 500 ng/mL + nicotinamide 5 mM, to levels similar to non-treated control) is given as “significantly (p<0.05) reduced SIRT activity”. Also, in the test on phosphorylated tau, the “effect of co-treatment on Leptin's reduction of phospho-tau” value is recorded as “negated these effects” and the “Tau396 phosphorylation compared to control” value is listed as “significantly (p<0.05) increased”. Further, the “effect of co-treatment on Leptin's reduction of Aβ(1-40)” value in the test with Aβ(1-40) is given as “reversed these effects”. Also, in the test on Total Sirtuins [2], the “dose with no further reduction in deacetylase activity upon increasing concentration” value was 5 mM.

`c1cc(-c2cnn3cc(-c4ccc(OCCN5CCCCC5)cc4)cnc23)ccn1` [compound C, 6-[4-(2-Piperidin-1-yl-ethoxy)-phenyl]-3-pyridin-4-yl-pyrrazolo[1,5,-α]pyrimidine]: the “AMPK activity on co-treatment with Leptin” value in test [3] (RA-SY5Y cells, Leptin 500 ng/mL + compound C 20 μM, 6 h, to levels similar to non-treated control) is given as “significantly (p<0.05) reduced AMPK activity”. In test [3] (titration in cell lysates, data not shown), the “dose with no further reduction in kinase activity upon increasing concentration” value came out at 10 µM. Besides, in the test on phosphorylated tau, the “effect of co-treatment on Leptin's reduction of phospho-tau” value was “negated these effects” and the “Tau396 phosphorylation compared to control” value is “significantly (p<0.05) increased”. For the same molecule, the “effect of co-treatment on Leptin's reduction of Aβ(1-40)” value in the test with Aβ(1-40) is recorded as “reversed these effects”.

“Leptin: recombinant human Leptin purchased from Sigma-Aldrich; pleiotropic hormone primarily secreted by adipocytes”: the “increase in AMPK kinase activity vs cells treated without Leptin” value in test [3] (RA-SY5Y cells, Leptin 500 ng/mL, 6 h, normalized to total protein, n=3, p<0.05) was “approximately 2 fold”. In addition, in the test with Total Sirtuins [1] (Leptin 500 ng/mL, normalized to total protein, n=3, p<0.05), the “increase in total SIRT deacetylase activity vs cells treated without Leptin” value is on record as “approximately 2.5 fold”. The “all examined phospho-tau species (pTau181, pTau231, pTau396)” value in the test on phosphorylated tau (Leptin 500 ng/mL, no SIRT or AMPK inhibition, normalized to total tau, n=3) is on record as “significant (p<0.05) reduction”. In addition, the “Aβ(1-40) in culture media” value in the test on Aβ(1-40) (Leptin 500 ng/mL, no inhibitors, normalized to total protein, n=3) was “significant (p<0.05) reduction”.
